Tested on: 889142-216-R-J1-PDC complex spheroid viability
Assay: Anticancer human tumor 889142-216-R-J1-PDC patient-derived bladder carcinoma cell line growth inhibition [POLQ]
Conditions: for IC50: curve of first compound; for viability, T/C: stronger effect = lower value
In short: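 PDC + HUVEC + MSC complex spheroids; POLQ inhibitors ± partner drugs; top conc. at/near clinical Cmax, else 10 microM (SN-38 1 microM), half-log dilutions; 37 degrees C, 5% CO2.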

[1] = second compound 0.0316 µM, first compound 0.000316 µM
[2] = second compound 0.0316 µM, first compound 0.001 µM
[3] = second compound 0.0316 µM, first compound 0.00316 µM
[4] = second compound 0.0316 µM, first compound 0.01 µM
[5] = second compound 0.0316 µM, first compound 0.0316 µM
[6] = second compound 0.0316 µM, first compound 0.1 µM
[7] = second compound 0.1 µM, first compound 0.000316 µM
[8] = second compound 0.1 µM, first compound 0.001 µM
[9] = second compound 0.1 µM, first compound 0.00316 µM
[10] = second compound 0.1 µM, first compound 0.01 µM
[11] = second compound 0.1 µM, first compound 0.0316 µM
[12] = second compound 0.1 µM, first compound 0.1 µM
[13] = second compound 0.316 µM, first compound 0.000316 µM
[14] = second compound 0.316 µM, first compound 0.001 µM
[15] = second compound 0.316 µM, first compound 0.00316 µM
[16] = second compound 0.316 µM, first compound 0.01 µM
[17] = second compound 0.316 µM, first compound 0.0316 µM
[18] = second compound 0.316 µM, first compound 0.1 µM
[19] = second compound 1 µM, first compound 0.000316 µM
[20] = second compound 1 µM, first compound 0.001 µM
[21] = second compound 1 µM, first compound 0.00316 µM
[22] = second compound 1 µM, first compound 0.01 µM
[23] = second compound 1 µM, first compound 0.0316 µM
[24] = second compound 1 µM, first compound 0.1 µM
[25] = second compound 3.16 µM, first compound 0.000316 µM
[26] = second compound 3.16 µM, first compound 0.001 µM
[27] = second compound 3.16 µM, first compound 0.00316 µM
[28] = second compound 3.16 µM, first compound 0.01 µM
[29] = second compound 3.16 µM, first compound 0.0316 µM
[30] = second compound 3.16 µM, first compound 0.1 µM
[31] = second compound 10 µM, first compound 0.000316 µM
[32] = second compound 10 µM, first compound 0.001 µM
[33] = second compound 10 µM, first compound 0.00316 µM
[34] = second compound 10 µM, first compound 0.01 µM
[35] = second compound 10 µM, first compound 0.0316 µM
[36] = second compound 10 µM, first compound 0.1 µM
[37] = second compound 0.0316 µM, first compound 0.316 µM
[38] = second compound 0.0316 µM, first compound 1 µM
[39] = second compound 0.1 µM, first compound 0.316 µM
[40] = second compound 0.1 µM, first compound 1 µM
[41] = second compound 0.316 µM, first compound 0.316 µM
[42] = second compound 0.316 µM, first compound 1 µM
[43] = second compound 1 µM, first compound 0.316 µM
[44] = second compound 1 µM, first compound 1 µM
[45] = second compound 3.16 µM, first compound 0.316 µM
[46] = second compound 3.16 µM, first compound 1 µM
[47] = second compound 10 µM, first compound 0.316 µM
[48] = second compound 10 µM, first compound 1 µM
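Also: spheroids exposed to compounds for seven days.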
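For viability, T/C in this document: 100% = DMSO vehicle control viability.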

`Cn1ncnc1[C@H]1c2n[nH]c(=O)c3cc(F)cc(c23)N[C@@H]1c1ccc(F)cc1` + Cc1cccc(N(C)C(=O)C2C(O)CCN2c2nc(C)cc(C(F)(F)F)c2C#N)c1 was tested, and the IC50 (second compound 0.0316 µM) was > 100 nM, the IC50 (second compound 0.1 µM) was > 100 nM and the IC50 (second compound 0.316 µM) was > 100 nM. For the same compound, the IC50 (second compound 1 µM) was > 100 nM, the IC50 (second compound 3.16 µM) was > 100 nM and the IC50 (second compound 10 µM) was > 100 nM. For the same compound, the viability, T/C [1] was 100%, the viability, T/C [2] was 93.9% and the viability, T/C [3] was 132%. It also gave a viability, T/C [4] of 74%, a viability, T/C [5] of 85.1% and a viability, T/C [6] of 67.8%. The viability, T/C [7] was 128%, the viability, T/C [8] was 101% and the viability, T/C [9] was 130%. The viability, T/C [10] was 104%, the viability, T/C [11] was 87.9% and the viability, T/C [12] was 71.3%. For the same compound, the viability, T/C [13] was 109%, the viability, T/C [14] was 111% and the viability, T/C [15] was 91.7%. For the same compound, the viability, T/C [16] was 93.1%, the viability, T/C [17] was 80.4% and the viability, T/C [18] was 65.5%. The viability, T/C [19] was 97.5%, the viability, T/C [20] was 110% and the viability, T/C [21] was 92%. It also gave a viability, T/C [22] of 92.9%, a viability, T/C [23] of 81.9% and a viability, T/C [24] of 72.9%. For the same compound, the viability, T/C [25] was 109%, the viability, T/C [26] was 105% and the viability, T/C [27] was 82.7%. It also gave a viability, T/C [28] of 73.6%, a viability, T/C [29] of 75.5% and a viability, T/C [30] of 73.4%. It also gave a viability, T/C [31] of 83.8%, a viability, T/C [32] of 71.6% and a viability, T/C [33] of 69.1%. For the same compound, the viability, T/C [34] was 77.1%, the viability, T/C [35] was 81.5% and the viability, T/C [36] was 62.5%.
In the case of `COc1cccc(OCCCN)c1-c1cc(Nc2cnc(C#N)cn2)n[nH]1` + Cc1cccc(N(C)C(=O)C2C(O)CCN2c2nc(C)cc(C(F)(F)F)c2C#N)c1, the IC50 (second compound 0.0316 µM) is reported as 93.9 nM, the IC50 (second compound 0.1 µM) is reported as 83 nM and the IC50 (second compound 0.316 µM) is reported as 29.2 nM. The IC50 (second compound 1 µM) was 35.6 nM, the IC50 (second compound 3.16 µM) was 143 nM and the IC50 (second compound 10 µM) was 27.4 nM. The viability, T/C [3] was 94.4%, the viability, T/C [4] was 65.8% and the viability, T/C [5] was 53.7%. The viability, T/C [6] was 52.1%, the viability, T/C [37] was 49% and the viability, T/C [38] was 45%. The viability, T/C [9] was 93.2%, the viability, T/C [10] was 95.6% and the viability, T/C [11] was 59.3%. For the same compound, the viability, T/C [12] was 52.3%, the viability, T/C [39] was 49.4% and the viability, T/C [40] was 42.9%. It also gave a viability, T/C [15] of 118%, a viability, T/C [16] of 62.3% and a viability, T/C [17] of 48.2%. It also gave a viability, T/C [18] of 50.6%, a viability, T/C [41] of 50.5% and a viability, T/C [42] of 39.7%. For the same compound, the viability, T/C [21] was 110%, the viability, T/C [22] was 62% and the viability, T/C [23] was 50.7%. For the same compound, the viability, T/C [24] was 51.7%, the viability, T/C [43] was 56.8% and the viability, T/C [44] was 38.2%. The viability, T/C [27] was 81%, the viability, T/C [28] was 73.6% and the viability, T/C [29] was 63.8%. It also gave a viability, T/C [30] of 46.2%, a viability, T/C [45] of 49.8% and a viability, T/C [46] of 51.8%. The viability, T/C [33] was 74.8%, the viability, T/C [34] was 73.5% and the viability, T/C [35] was 46.6%. It also gave a viability, T/C [36] of 48.8%, a viability, T/C [47] of 42.7% and a viability, T/C [48] of 43.9%.
`CC1COCCN1c1cc(C2(S(C)(=N)=O)CC2)nc(-c2ccnc3[nH]ccc23)n1` (stereo not drawn) + Cc1cccc(N(C)C(=O)C2C(O)CCN2c2nc(C)cc(C(F)(F)F)c2C#N)c1 gave an IC50 (second compound 0.0316 µM) of 7040 nM, an IC50 (second compound 0.1 µM) of 10000 nM and an IC50 (second compound 0.316 µM) of 3020 nM. For the same compound, the IC50 (second compound 1 µM) was 2270 nM, the IC50 (second compound 3.16 µM) was 1400 nM and the IC50 (second compound 10 µM) was 966 nM. It also gave a viability, T/C [5] of 109%, a viability, T/C [6] of 97.9% and a viability, T/C [37] of 64.5%. The viability, T/C [38] was 76%, the viability, T/C (second compound 0.0316 µM, first compound 3.16 µM) was 49.4% and the viability, T/C (second compound 0.0316 µM, first compound 10 µM) was 48.4%. For the same compound, the viability, T/C [11] was 92.9%, the viability, T/C [12] was 128% and the viability, T/C [39] was 82%. The viability, T/C [40] was 58.1%, the viability, T/C (second compound 0.1 µM, first compound 3.16 µM) was 49.5% and the viability, T/C (second compound 0.1 µM, first compound 10 µM) was 45.8%. The viability, T/C [17] was 128%, the viability, T/C [18] was 97% and the viability, T/C [41] was 85%. It also gave a viability, T/C [42] of 65.4%, a viability, T/C (second compound 0.316 µM, first compound 3.16 µM) of 43.7% and a viability, T/C (second compound 0.316 µM, first compound 10 µM) of 41.8%. It also gave a viability, T/C [23] of 111%, a viability, T/C [24] of 106% and a viability, T/C [43] of 70.7%. It also gave a viability, T/C [44] of 60.1%, a viability, T/C (second compound 1 µM, first compound 3.16 µM) of 50% and a viability, T/C (second compound 1 µM, first compound 10 µM) of 41.5%. It also gave a viability, T/C [29] of 92.4%, a viability, T/C [30] of 94.4% and a viability, T/C [45] of 72.3%. It also gave a viability, T/C [46] of 53.9%, a viability, T/C (second compound 3.16 µM, first compound 3.16 µM) of 44.5% and a viability, T/C (second compound 3.16 µM, first compound 10 µM) of 41.5%. The viability, T/C [35] was 85.6%, the viability, T/C [36] was 94.6% and the viability, T/C [47] was 89.4%. The viability, T/C [48] was 48.8%, the viability, T/C (second compound 10 µM, first compound 3.16 µM) was 50.1% and the viability, T/C (second compound 10 µM, first compound 10 µM) was 38.8%.
In the case of `Cn1ncnc1[C@H]1c2n[nH]c(=O)c3cc(F)cc(c23)N[C@@H]1c1ccc(F)cc1` + Nc1ccc(C#CCN(C(=O)Cc2ncc(C(F)(F)F)cc2C(F)(F)F)c2ccc(F)cc2)nn1, the IC50 (second compound 0.0316 µM) is reported as > 100 nM, the IC50 (second compound 0.1 µM) is reported as > 100 nM and the IC50 (second compound 0.316 µM) is reported as > 100 nM. For the same compound, the IC50 (second compound 1 µM) was > 100 nM, the IC50 (second compound 3.16 µM) was > 100 nM and the IC50 (second compound 10 µM) was > 100 nM. The viability, T/C [1] was 96.8%, the viability, T/C [2] was 121% and the viability, T/C [3] was 110%. The viability, T/C [4] was 85.7%, the viability, T/C [5] was 90.3% and the viability, T/C [6] was 87.4%. It also gave a viability, T/C [7] of 176%, a viability, T/C [8] of 83.6% and a viability, T/C [9] of 92%. It also gave a viability, T/C [10] of 91.4%, a viability, T/C [11] of 105% and a viability, T/C [12] of 101%. The viability, T/C [13] was 108%, the viability, T/C [14] was 102% and the viability, T/C [15] was 91.3%. It also gave a viability, T/C [16] of 79.6%, a viability, T/C [17] of 97.2% and a viability, T/C [18] of 73.2%. For the same compound, the viability, T/C [19] was 127%, the viability, T/C [20] was 81.1% and the viability, T/C [21] was 124%. The viability, T/C [22] was 95.9%, the viability, T/C [23] was 67.4% and the viability, T/C [24] was 72.2%. It also gave a viability, T/C [25] of 110%, a viability, T/C [26] of 124% and a viability, T/C [27] of 135%. The viability, T/C [28] was 77.1%, the viability, T/C [29] was 92.3% and the viability, T/C [30] was 87.2%. It also gave a viability, T/C [31] of 122%, a viability, T/C [32] of 93.5% and a viability, T/C [33] of 113%. The viability, T/C [34] was 90.2%, the viability, T/C [35] was 115% and the viability, T/C [36] was 80.4%.
